Drawing on patent US20250262222A1, “HETEROCYCLIC COMPOUNDS, COMPOSITIONS THEREOF, AND METHODS OF TREATMENT THEREWITH” (BeiGene Switzerland GmbH, priority 2022, published 2025), this text covers IC50 for 17 molecules.

The test system of the first experiment is pERK1/2(THR202/TYR204) level in AsPC-1 cell line. Description: KRAS G12D pERK assay. The class given is cell-based. As to conditions: AsPC-1 cells, 2 h compound treatment, HTRF. The method, then: AsPC-1 cell line was used in this study. Cells were maintained in RPMI-1640 supplemented with 10% fetal bovine serum (Thermo Fisher), 50 units/mL penicillin and streptomycin (Thermo Fisher) and kept at 37° C. in a humidified atmosphere of 5% CO2 in air. Cells were reinstated from frozen stocks that were laid down within 30 passages from the original cells purchased. 30000 cells per well were seeded into a 96-well plate and incubated overnight. Cells were treated with a 10-point dilution series. The final compound concentration is from 0 to 10 μM. After 2 h compound treatment, cells were lysed, and the pERK1/2(THR202/TYR204) level in the cell lysates was detected by HTRF kit (Cisbio). In brief, a total of 16 μL of cell lysate from each well of a 96-well plate was transferred to a 384-well white assay plate. Lysate from each well was incubated with 2 μL of Eu3+-cryptate (donor) labeled anti-phospho-ERK1/2 and 2 μL of D2 (acceptor) labeled anti-phospho-ERK1/2 antibodies (Cisbio) overnight in dark at room temperature. When donor and acceptor are in close proximity, excitation of the donor with laser triggers a Fluorescence Resonance Energy Transfer (FRET) towards the acceptor, which in turn fluoresces at 655 nm wavelength. FRET signals were measured using a PHERAstar FSX reader (BMG Labtech). IC50 determination was performed by fitting the curve of percent inhibition versus the log of the inhibitor concentration using Dotmatics.
For orientation: Time-resolved FRET reads energy transfer from a long-lived donor to a nearby acceptor.
What is called IC50 is the concentration that inhibits the measured activity by half. A higher IC50 goes with weaker potency. Regarding `Nc1cc(Cl)c(C(F)(F)F)c(-c2nc3c4c(nc(OC[C@@]56CCCN5C[C@H](F)C6)nc4c2F)N2C[C@H]4CC[C@H](N4)C2CCO3)c1` (single isomer, unassigned) [Example 25], half-maximal inhibition (IC50) required 504 nM.

Staying with this experiment, now noted: Homo sapiens, ASPC1, 2 h, AsPC-1 cells, 2 h compound treatment, HTRF.
Turning to `CCc1cc(N)cc(-c2nc3c4c(nc(OCC56COC(C5)C6)nc4c2F)N2C[C@H]4CC[C@H](N4)[C@H]2CCO3)c1C(F)(F)F` [Example 68, 3-((6aR,7S,10R)-13-((2-oxabicyclo[2.1.1]hexan-4-yl)methoxy)-1-fluoro-5,6,6a,7,8,9,10,11-octahydro-4-oxa-3,11a,12,14,15-pentaaza-7,10-methanocyclohepta[4,5]cycloocta[1,2,3-de]naphthalen-2-yl)-5-ethyl-4-(trifluoromethyl)aniline], the IC50 is 548 nM.
For the molecule `CC12COCC(COc3nc4c5c(nc(-c6cc(N)cc(Cl)c6C(F)(F)F)c(F)c5n3)OCC[C@@H]3[C@@H]5CC[C@H](CN43)N5)(C1)C2` [Example 48, 3-chloro-5-((6aR,7S,10R)-1-fluoro-13-((5-methyl-3-oxabicyclo[3.1.1]heptan-1-yl)methoxy)-5,6,6a,7,8,9,10,11-octahydro-4-oxa-3,11a,12,14,15-pentaaza-7,10-methanocyclohepta[4,5]cyclo-octa[1,2,3-de]naphthalen-2-yl)-4-(trifluoromethyl)aniline], 296 nM corresponded to half-maximal inhibition (IC50).
The molecule `Nc1cc(Cl)c(C(F)(F)F)c(-c2nc3c4c(nc(OC[C@@]56CCCN5C[C@H](F)C6)nc4c2F)N2CC4CCC(N4)C2CO3)c1` (stereo partly drawn) [Example 10, 3-chloro-5-(1-fluoro-12-(((2R,7aS)-2-fluorotetrahydro-1H-pyrrolizin-7a(5H)-yl)methoxy)-5a,6,7,8,9,10-hexahydro-5H-4-oxa-3,10a,11,13,14-pentaaza-6,9-methanonaphtho[1,8-ab]heptalen-2-yl)-4-(trifluoromethyl)aniline] showed an IC50 of 58 nM.
The molecule `Cc1c(F)c(N)cc(-c2nc3c4c(nc(OCC5(C(F)F)COC5)nc4c2F)N2C[C@H]4CC[C@H](N4)[C@H]2CCO3)c1C(F)(F)F` [Example 31, 5-((6aR,7S,10R)-13-((3-(difluoromethyl)oxetan-3-yl)methoxy)-1-fluoro-5,6,6a,7,8,9,10,11-octahydro-4-oxa-3,11a,12,14,15-pentaaza-7,10-methanocyclohepta[4,5]cyclo-octa[1,2,3-de]naphthalen-2-yl)-2-fluoro-3-methyl-4-(trifluoromethyl)aniline] had an IC50 of 162 nM.
With `COC1(COc2nc3c4c(nc(-c5cc(N)cc(Cl)c5C(F)(F)F)c(F)c4n2)OCC[C@@H]2[C@@H]4CC[C@H](CN32)N4)COC1` [Example 61, 3-chloro-5-((6aR,7S,10R)-1-fluoro-13-((3-methoxyoxetan-3-yl)methoxy)-5,6,6a,7,8,9,10,11-octahydro-4-oxa-3,11a,12,14,15-pentaaza-7,10-methanocyclohepta[4,5]cyclo-octa[1,2,3-de]naphthalen-2-yl)-4-(trifluoromethyl)aniline], 332 nM corresponded to half-maximal inhibition (IC50).
As for `Nc1cc(Cl)c(C(F)(F)F)c(-c2nc3c4c(nc(OCC5(C(F)F)CCOC5)nc4c2F)N2C[C@H]4CC[C@H](N4)[C@H]2CCO3)c1` (stereo partly drawn) [Example 63, 3-chloro-5-((6aR,7S,10R)-13-((3-(difluoromethyl)tetrahydrofuran-3-yl)methoxy)-1-fluoro-5,6,6a,7,8,9,10,11-octahydro-4-oxa-3,11a,12,14,15-pentaaza-7,10-methanocyclohepta[4,5]cyclo-octa[1,2,3-de]naphthalen-2-yl)-4-(trifluoromethyl)aniline], the IC50 is 151 nM.
As to `Cc1cc(N)cc(-c2nc3c4c(nc(OCC56COCC(F)(C5)C6)nc4c2F)N2C[C@H]4CC[C@H](N4)[C@H]2CCO3)c1C(F)(F)F` [Example 30, 3-((6aR,7S,10R)-1-fluoro-13-((5-fluoro-3-oxabicyclo[3.1.1]heptan-1-yl)methoxy)-5,6,6a,7,8,9,10,11-octahydro-4-oxa-3,11a,12,14,15-pentaaza-7,10-methanocyclohepta[4,5]cyclo-octa[1,2,3-de]naphthalen-2-yl)-5-methyl-4-(trifluoromethyl)aniline], the IC50 came to 198 nM.
Consider `Cc1nc(N)cc(-c2nc3c4c(nc(OCC56COC(C5)C6)nc4c2F)N2CC4CCC(N4)[C@H]2CCO3)c1C(F)(F)F` (stereo in doubt) [Example 42, 4-((6aR,7R,10S)-13-((2-oxabicyclo[2.1.1]hexan-4-yl)methoxy)-1-fluoro-5,6,6a,7,8,9,10,11-octahydro-4-oxa-3,11a,12,14,15-pentaaza-7,10-methanocyclohepta[4,5]cyclo-octa[1,2,3-de]naphthalen-2-yl)-6-methyl-5-(trifluoromethyl)pyridin-2-amine], for which the IC50 is 1850 nM.
`Nc1cc(Cl)c(C(F)(F)F)c(-c2nc3c4c(nc(OCC56COC(C(F)(F)F)(C5)C6)nc4c2F)N2C[C@H]4CC[C@H](N4)[C@H]2CCO3)c1` [Example 53, 3-chloro-5-((6aR,7S,10R)-1-fluoro-13-((1-(trifluoromethyl)-2-oxabicyclo[2.1.1]hexan-4-yl)methoxy)-5,6,6a,7,8,9,10,11-octahydro-4-oxa-3,11a,12,14,15-pentaaza-7,10-methanocyclohepta[4,5]cyclo-octa[1,2,3-de]naphthalen-2-yl)-4-(trifluoromethyl)aniline] had an IC50 of 211 nM.
`CN1C(=O)OC2(C)CC1(COc1nc3c4c(nc(-c5cc(N)cc(Cl)c5C(F)(F)F)c(F)c4n1)OCC[C@@H]1[C@@H]4CC[C@H](CN31)N4)C2` [Example 47, 5-((((6aR,7S,10R)-2-(5-amino-3-chloro-2-(trifluoromethyl)phenyl)-1-fluoro-5,6,6a,7,8,9,10,11-octahydro-4-oxa-3,11a,12,14,15-pentaaza-7,10-methanocyclohepta[4,5]cyclo-octa[1,2,3-de]naphthalen-13-yl)oxy)methyl)-1,4-dimethyl-2-oxa-4-azabicyclo[3.1.1]heptan-3-one] returned an IC50 of 1930 nM.
For `CN1C(=O)OC2CC1(COc1nc3c4c(nc(-c5cc(N)cc(Cl)c5C(F)(F)F)c(F)c4n1)OCC[C@@H]1[C@@H]4CC[C@H](CN31)N4)C2` [Example 46, 5-((((6aR,7S,10R)-2-(5-amino-3-chloro-2-(trifluoromethyl)phenyl)-1-fluoro-5,6,6a,7,8,9,10,11-octahydro-4-oxa-3,11a,12,14,15-pentaaza-7,10-methanocyclohepta[4,5]cyclo-octa[1,2,3-de]naphthalen-13-yl)oxy)methyl)-4-methyl-2-oxa-4-azabicyclo[3.1.1]heptan-3-one], the IC50 was determined as 4860 nM.
`Cc1cc(N)cc(-c2nc3c4c(nc(OCC56COC(CF)(C5)C6)nc4c2F)N2C[C@H]4CC[C@H](N4)[C@H]2CCO3)c1C(F)(F)F` [Example 49, 3-((6aR,7S,10R)-1-fluoro-13-((1-(fluoromethyl)-2-oxabicyclo[2.1.1]hexan-4-yl)methoxy)-5,6,6a,7,8,9,10,11-octahydro-4-oxa-3,11a,12,14,15-pentaaza-7,10-methanocyclohepta[4,5]cyclo-octa[1,2,3-de]naphthalen-2-yl)-5-methyl-4-(trifluoromethyl)aniline]: half-maximal inhibition (IC50) required 172 nM.
The molecule `Oc1cc(Cl)c(C2CC2)c(-c2nc3c4c(nc(OCC56COC(C5)C6)nc4c2F)N2C[C@H]4CC[C@H](N4)[C@H]2CCO3)c1` [Example 38, 3-((6aR,7S,10R)-13-((2-oxabicyclo[2.1.1]hexan-4-yl)methoxy)-1-fluoro-5,6,6a,7,8,9,10,11-octahydro-4-oxa-3,11a,12,14,15-pentaaza-7,10-methanocyclohepta[4,5]cyclo-octa[1,2,3-de]naphthalen-2-yl)-5-chloro-4-cyclopropylphenol] came in with an IC50 of 1870 nM.
As for `C#Cc1c(F)ccc2cc(O)cc(-c3nc4c5c(nc(OC[C@@]67CCCN6C[C@H](F)C7)nc5c3F)N3CC5CCC(N5)C3CO4)c12` (stereo partly drawn) [Example 11, 5-ethynyl-6-fluoro-4-(1-fluoro-12-(((2R,7aS)-2-fluorotetrahydro-1H-pyrrolizin-7a(5H)-yl)methoxy)-5a,6,7,8,9,10-hexahydro-5H-4-oxa-3,10a,11,13,14-pentaaza-6,9-methanonaphtho[1,8-ab]heptalen-2-yl)naphthalen-2-ol], the IC50 stood at 30 nM.
As for `CC1(COc2nc3c4c(nc(-c5cc(N)cc(Cl)c5C(F)(F)F)c(F)c4n2)OCC[C@@H]2[C@@H]4CC[C@H](CN32)N4)COC1` [Example 66, 3-chloro-5-((6aR,7S,10R)-1-fluoro-13-((3-methyloxetan-3-yl)methoxy)-5,6,6a,7,8,9,10,11-octahydro-4-oxa-3,11a,12,14,15-pentaaza-7,10-methanocyclohepta[4,5]cyclo-octa[1,2,3-de]naphthalen-2-yl)-4-(trifluoromethyl)aniline], inhibition was half-maximal at 145 nM (IC50).
Still for that read-out and setting: next, `CCOC(=O)N1CC(C)(COc2nc3c4c(nc(-c5cc(N)cc(Cl)c5C(F)(F)F)c(F)c4n2)OCC[C@@H]2[C@@H]4CC[C@H](CN32)N4)C1` [Example 33, ethyl 3-((((6aR,7S,10R)-2-(5-amino-3-chloro-2-(trifluoromethyl)phenyl)-1-fluoro-5,6,6a,7,8,9,10,11-octahydro-4-oxa-3,11a,12,14,15-pentaaza-7,10-methanocyclohepta[4,5]cyclo-octa[1,2,3-de]naphthalen-13-yl)oxy)methyl)-3-methylazetidine-1-carboxylate]: 286 nM.
